From patent US8088815B2, “Spiroindolinone pyrrolidines” (Hoffman-La Roche Inc., priority 2009, dated 2012)
pIC50: −log10 of the molar value.

Each compound was assayed against interaction between p53 and MDM2 proteins (Homo sapiens, UniProt Q00987) (assay: HTRF assay of inhibition of the p53-MDM2 interaction (GST-MDM2 / biotinylated p53 peptide)). Conditions: recombinant GST-tagged MDM2 and biotinylated p53 peptide, bsa:0.02%.
Format: binding

interaction between p53 and MDM2 proteins, sequence (Q00987 whole entry): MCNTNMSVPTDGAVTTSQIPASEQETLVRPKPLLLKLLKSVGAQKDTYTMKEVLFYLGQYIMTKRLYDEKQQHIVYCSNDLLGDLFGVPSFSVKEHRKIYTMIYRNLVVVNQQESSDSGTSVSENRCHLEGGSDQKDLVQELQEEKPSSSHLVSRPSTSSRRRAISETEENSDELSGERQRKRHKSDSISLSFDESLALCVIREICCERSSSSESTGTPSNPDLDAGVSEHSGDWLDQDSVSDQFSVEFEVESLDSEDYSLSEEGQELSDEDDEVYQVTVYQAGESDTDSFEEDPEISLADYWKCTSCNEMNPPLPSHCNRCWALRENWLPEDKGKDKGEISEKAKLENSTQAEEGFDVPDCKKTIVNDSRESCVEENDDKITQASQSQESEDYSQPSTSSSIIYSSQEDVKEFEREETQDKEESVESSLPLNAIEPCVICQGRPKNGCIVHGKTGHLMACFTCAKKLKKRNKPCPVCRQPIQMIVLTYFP

Structure (SMILES)	pIC50
CC(C)(C)C[C@@H]1N[C@@H](C(=O)Nc2cnc(C(N)=O)nc2)[C@H](c2cccc(Cl)c2F)[C@]12C(=O)Nc1cc(Cl)ccc12 (racemic) [Example 185, rac-(2′S,3′R,4′S,5′R)-6-chloro-4′-(3-chloro-2-fluoro-phenyl)-2′-(2,2-dimethyl-propyl)-2-oxo-1,2-dihydro-spiro[indole-3,3′-pyrrolidine]-5′-carboxylic acid (2-carbamoyl-pyrimidin-5-yl)-amide]	7.80
CC(C)(C)C[C@@H]1N[C@@H](C(=O)Nc2ccc(C#N)s2)[C@H](c2cccc(Cl)c2F)[C@]12C(=O)Nc1cc(Cl)ccc12 (racemic) [Example 187, rac-(2′S,3′R,4′S,5′R)-6-chloro-4′-(3-chloro-2-fluoro-phenyl)-2′-(2,2-dimethyl-propyl)-2-oxo-1,2-dihydro-spiro[indole-3,3′-pyrrolidine]-5′-carboxylic acid (5-cyano-thiophen-2-yl)-amide]	7.82
CC(C)(C)C[C@@H]1N[C@@H](C(=O)Nc2ccc(C(N)=O)s2)[C@H](c2cccc(Cl)c2F)[C@]12C(=O)Nc1cc(Cl)ccc12 (racemic) [Example 188, rac-(2′S,3′R,4′S,5′R)-6-chloro-4′-(3-chloro-2-fluoro-phenyl)-2′-(2,2-dimethyl-propyl)-2-oxo-1,2-dihydro-spiro[indole-3,3′-pyrrolidine]-5′-carboxylic acid (5-carbamoyl-thiophen-2-yl)-amide]	8.10
COc1cc(OCCO)ncc1NC(=O)[C@@H]1N[C@@H](CC(C)(C)C)[C@@]2(C(=O)Nc3cc(Cl)ccc32)[C@H]1c1cccc(Cl)c1F (racemic) [Example 192, rac-(2′S,3′R,4′S,5′R)-6-chloro-4′-(3-chloro-2-fluoro-phenyl)-2′-(2,2-dimethyl-propyl)-2-oxo-1,2-dihydro-spiro[indole-3,3′-pyrrolidine]-5′-carboxylic acid [6-(2-hydroxy-ethoxy)-4-methoxy-pyridin-3-yl]-amide]	8.15
Cn1c(NC(=O)[C@@H]2N[C@@H](CC(C)(C)C)[C@@]3(C(=O)Nc4cc(Cl)ccc43)[C@H]2c2cccc(Cl)c2F)ccc1C(=O)OC(C)(C)C (racemic) [Example 194, rac-5-{[(2′S,3′R,4′S,5′R)-6-chloro-4′-(3-chloro-2-fluoro-phenyl)-2′-(2,2-dimethyl-propyl)-2-oxo-1,2-dihydro-spiro[indole-3,3′-pyrrolidine]-5′-carbonyl]amino}-1-methyl-1H-pyrrole-2-carboxylic acid tert-butyl ester]	7.26
Cn1cccc1NC(=O)[C@@H]1N[C@@H](CC(C)(C)C)[C@@]2(C(=O)Nc3cc(Cl)ccc32)[C@H]1c1cccc(Cl)c1F (racemic) [Example 195, rac-(2′S,3′R,4′S,5′R)-6-chloro-4′-(3-chloro-2-fluoro-phenyl)-2′-(2,2-dimethyl-propyl)-2-oxo-1,2-dihydro-spiro[indole-3,3′-pyrrolidine]-5′-carboxylic acid (1-methyl-1H-pyrrol-2-yl)-amide]	7.82
CCOC(=O)c1csc(NC(=O)[C@@H]2N[C@@H](CC(C)(C)C)[C@@]3(C(=O)Nc4cc(Cl)ccc43)[C@H]2c2cccc(Cl)c2F)n1 (racemic) [Example 196, rac-2-{[(2′S,3′R,4′S,5′R)-6-chloro-4′-(3-chloro-2-fluoro-phenyl)-2′-(2,2-dimethyl-propyl)-2-oxo-1,2-dihydro-spiro[indole-3,3′-pyrrolidine]-5′-carbonyl]-amino}-thiazole-4-carboxylic acid ethyl ester]	7.30
CC(C)(C)C[C@@H]1N[C@@H](C(=O)Nc2nc(C(=O)O)cs2)[C@H](c2cccc(Cl)c2F)[C@]12C(=O)Nc1cc(Cl)ccc12 (racemic) [Example 197, rac-2-{[(2′S,3′R,4′S,5′R)-6-chloro-4′-(3-chloro-2-fluoro-phenyl)-2′-(2,2-dimethyl-propyl)-2-oxo-1,2-dihydro-spiro[indole-3,3′-pyrrolidine]-5′-carbonyl]amino}-thiazole-4-carboxylic acid]	7.29
CC(C)(C)C[C@@H]1N[C@@H](C(=O)Nc2nc(C(N)=O)cs2)[C@H](c2cccc(Cl)c2F)[C@]12C(=O)Nc1cc(Cl)ccc12 (racemic) [Example 198, rac-(2′S,3′R,4′S,5′R)-6-chloro-4′-(3-chloro-2-fluoro-phenyl)-2′-(2,2-dimethyl-propyl)-2-oxo-1,2-dihydro-spiro[indole-3,3′-pyrrolidine]-5′-carboxylic acid (4-carbamoyl-thiazol-2-yl)-amide]	7.92
CC(C)(C)C[C@@H]1N[C@@H](C(=O)Nc2ccc(OCC(=O)O)cc2)[C@H](c2cccc(Cl)c2F)[C@]12C(=O)Nc1cc(Cl)ccc12 (racemic) [Example 206, rac-(4-{[(2′S,3′R,4′S,5′R)-6-chloro-4′-(3-chloro-2-fluoro-phenyl)-2′-(2,2-dimethyl-propyl)-2-oxo-1,2-dihydro-spiro[indole-3,3′-pyrrolidine]-5′-carbonyl]amino}-phenoxy)-acetic acid]	8.22
CC(C)(C)C[C@@H]1N[C@@H](C(=O)Nc2ccc(CCC(=O)O)cc2)[C@H](c2cccc(Cl)c2F)[C@]12C(=O)Nc1cc(Cl)ccc12 (racemic) [Example 209, rac-3-(4-{[(2′S,3′R,4′S,5′R)-6-chloro-4′-(3-chloro-2-fluoro-phenyl)-2′-(2,2-dimethyl-propyl)-2-oxo-1,2-dihydro-spiro[indole-3,3′-pyrrolidine]-5′-carbonyl]-amino}-phenyl)-propionic acid]	8.40
CC(C)(C)C[C@@H]1N[C@@H](C(=O)Nc2ccc(OCC(N)=O)cc2)[C@H](c2cccc(Cl)c2F)[C@]12C(=O)Nc1cc(Cl)ccc12 (racemic) [Example 210, rac-(2′S,3′R,4′S,5′R)-6-chloro-4′-(3-chloro-2-fluoro-phenyl)-2′-(2,2-dimethyl-propyl)-2-oxo-1,2-dihydro-spiro[indole-3,3′-pyrrolidine]-5′-carboxylic acid (4-carbamoylmethoxy-phenyl)-amide]	7.82
CC(C)(C)C[C@@H]1N[C@@H](C(=O)Nc2ccc(CCC(N)=O)cc2)[C@H](c2cccc(Cl)c2F)[C@]12C(=O)Nc1cc(Cl)ccc12 (racemic) [Example 211, rac-(2′S,3′R,4′S,5′R)-6-chloro-4′-(3-chloro-2-fluoro-phenyl)-2′-(2,2-dimethyl-propyl)-2-oxo-1,2-dihydro-spiro[indole-3,3′-pyrrolidine]-5′-carboxylic acid [4-(2-carbamoyl-ethyl)-phenyl]-amide]	7.82
COC(=O)c1cc2cc(NC(=O)[C@@H]3N[C@@H](CC(C)(C)C)[C@@]4(C(=O)Nc5cc(Cl)ccc54)[C@H]3c3cccc(Cl)c3F)ccc2s1 (racemic) [Example 212, rac-5-{[(2′S,3′R,4′S,5′R)-6-chloro-4′-(3-chloro-2-fluoro-phenyl)-2′-(2,2-dimethyl-propyl)-2-oxo-1,2-dihydro-spiro[indole-3,3′-pyrrolidine]-5′-carbonyl]amino}-benzo[b]thiophene-2-carboxylic acid methyl ester]	7.74
CC(C)(C)C[C@@H]1N[C@@H](C(=O)Nc2ccc3sc(C(=O)O)cc3c2)[C@H](c2cccc(Cl)c2F)[C@]12C(=O)Nc1cc(Cl)ccc12 (racemic) [Example 213, rac-5-{[(2′S,3′R,4′S,5′R)-6-chloro-4′-(3-chloro-2-fluoro-phenyl)-2′-(2,2-dimethyl-propyl)-2-oxo-1,2-dihydro-spiro[indole-3,3′-pyrrolidine]-5′-carbonyl]amino}-benzo[b]thiophene-2-carboxylic acid]	7.85
